Data on three molecules can be found in ChEMBL document CHEMBL4715893, “Inhibitory effects of sesquiterpene lactones from the Indonesian marine sponge Lamellodysidea cf. herbacea on bone morphogenetic protein-induced osteoblastic differentiation” (Bioorg Med Chem Lett, 2021).

Test [1] in a line: Inhibition of BMP-induced mouse C2C12 cells osteoblastic differentiation assessed as reduction in alkaline phosphatase activity. Type of test: functional, cell-based.
The test system of test [2] is C2C12. Put plainly: Cytotoxicity against mouse C2C12 cells assessed as reduction in cell viability by MTT assay. Type of test: cell-based.

As usually defined, the IC50 is the concentration needed to halve the response being measured. Regarding `C=C1C[C@@H]2C[C@@](C)(CCC3=CC(=O)O[C@@]32OC)[C@H]1C`, the IC50 in test [1] was 51 µM; in test [2] it was > 76 µM.
For `CC1=CCC[C@@H](C)[C@]1(C)CCC1=CC(=O)OC1O` (stereo partly specified), in that order: 4.8 µM and > 40 µM.
For the molecule `COC1C=C(CC[C@]2(C)C(C)=CCC[C@H]2C)C(=O)O1` (stereo partly specified), the results for the IC50 in test [1] and in test [2] were 20 µM and > 38 µM, respectively.
